{
  "source": "patent US9605296B2",
  "about": "“Fluorogenic peptidase substrate” (ECOLE NORMALE SUPERIEURE DE LYON, priority 2011, dated 2017)",
  "key": {"[1]": {"molecular_target": "T1, microsomal leucine aminopeptidase (EC 3.4.11.2; PLA) (Sus scrofa, UniProt P15145)", "T1 construct": "The microsomal leucine aminopeptidase (EC 3.4.11.2) of pig kidney was purchased from Sigma; purchased Sigma 069K7356; host or cells: pig kidney (tissue-derived enzyme)", "T1 sequence (P15145 1-963)": "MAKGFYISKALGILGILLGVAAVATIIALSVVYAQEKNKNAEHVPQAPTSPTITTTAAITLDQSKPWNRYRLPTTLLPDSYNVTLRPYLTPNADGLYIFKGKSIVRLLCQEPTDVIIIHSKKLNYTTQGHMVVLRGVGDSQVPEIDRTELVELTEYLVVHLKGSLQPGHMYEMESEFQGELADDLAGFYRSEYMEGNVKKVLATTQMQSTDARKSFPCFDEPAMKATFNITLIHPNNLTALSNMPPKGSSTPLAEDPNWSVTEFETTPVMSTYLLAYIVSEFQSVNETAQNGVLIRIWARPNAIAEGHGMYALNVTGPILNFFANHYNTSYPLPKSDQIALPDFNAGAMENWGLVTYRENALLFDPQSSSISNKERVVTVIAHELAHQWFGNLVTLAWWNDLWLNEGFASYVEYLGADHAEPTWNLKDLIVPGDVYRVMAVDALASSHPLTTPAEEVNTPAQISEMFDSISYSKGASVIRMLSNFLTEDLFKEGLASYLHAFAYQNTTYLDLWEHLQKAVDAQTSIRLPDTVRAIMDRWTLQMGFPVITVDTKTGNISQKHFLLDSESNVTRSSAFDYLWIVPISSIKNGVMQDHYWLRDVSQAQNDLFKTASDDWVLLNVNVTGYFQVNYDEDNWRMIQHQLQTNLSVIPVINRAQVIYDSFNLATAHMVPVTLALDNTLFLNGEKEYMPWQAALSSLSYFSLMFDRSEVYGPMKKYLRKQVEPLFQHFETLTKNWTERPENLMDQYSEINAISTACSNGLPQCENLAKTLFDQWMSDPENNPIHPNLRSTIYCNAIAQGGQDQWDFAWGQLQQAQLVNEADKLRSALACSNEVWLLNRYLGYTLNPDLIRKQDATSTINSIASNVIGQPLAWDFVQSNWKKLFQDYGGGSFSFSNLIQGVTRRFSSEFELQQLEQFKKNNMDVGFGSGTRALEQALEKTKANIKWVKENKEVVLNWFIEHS", "experiment": "Enzymatic test: fluorescence of probes incubated with microsomal leucine aminopeptidase (PLA) in multi-well plates", "type": "biochemical, pig", "conditions": "for Delay for obtaining an intense increase in the signal: different probe concentrations, FIG. 5, generally less than 100 minutes", "procedure": "Preamble: Within the scope of the invention, upon applying the enzymatic tests, once the minimum, concentration allowing triggering of crystal nucleation is reached, a solid fluorophore may first be deposited on the walls of the receptacle (a well in a multi-well plate), before beginning to deposit on the bottom of the receptacle. The delay associated with the triggering of nucleation (≧10 mins) is well seen on the kinetic curves in the figures shown. The enzymatic tests carried out are illustrated with the appended figures.\n(§1) The probes I.1 and I.2 were evaluated by incubation with the target enzyme, microsomal leucine aminopeptidase (EC 3.4.11.2; “PLA”; commercial) in an in vitro medium in multi-well micro-plates designed for fluorescence readers.\nThe main tests were conducted at 25° C., in solutions buffered to pH 7.4 (physiological pH). […] A temperature of 25° C. was therefore preferred.\n(§2) All the final solutions for the enzymatic tests were buffered to a pH varying from 7.4 to 7.6 (depending on the room temperature) with a 25 mM (total concentration) of Tris/Tris.HCl buffer, containing 11 mM of NaCl. The microsomal leucine aminopeptidase (EC 3.4.11.2) of pig kidney was purchased from Sigma (catalogue no. 069K7356) in the form of a suspension in ammonium sulfate (3.5 M) containing MgCl2 (10 mM), with 3.5 mg·mL^−1 of protein contents and 10-40 U/mg of protein, as determined for the standard substrate, leucyl p-nitroanilide, and was stored in a fridge at 4° C. for a maximum of 40 days before its use. […] Analyses Carried Out:\n(§3) The analyses were carried out with reading of the fluorescence values, measured in RFU, versus time. The analyses were conducted in black polypropylene plates with 96 (Corning, Corning Inc.) or with 384 (Nunclon, Nunc Inc.) wells, and recorded on a microplate fluorimeter (Mithras LB940 from Berthold Technologies). This fluorimeter was used in a so-called repeated mode, where the fluorescence was measured with a reading, here selected to be 3 seconds per well, the excitation beam with a diameter of 4 mm being centered in the well. […] It should be noted that this mode of use is close to the operation of optical high throughput screening by fluorescence, which is one of the applications envisioned for these types of probes. […] In the scanning mode, the wells were divided into a square read-out grid, typically covering the well with a resolution of 8×8 to 15×15 pixels, each of the pixels being read between 0.1 and 0.3 s. This scanning mode partly removes the errors and the read-out noise of the total fluorescence of the well subject to the repeated mode, subsequently to the tendency of the fluorophore once it is released of depositing a first phase on the walls. The scanning mode as implemented here is also slower and less suitable for qualitatively following reaction kinetics. It should be noted that this mode of use is close to the operation of cell counting, which is a second application envisioned for these types of probes.\nThe excitation wavelength for the probes I.1 and I.2 (based on HPQ) was set to 355 nm, and the localized emission wavelength was set to 510 nm, since the fluorimeter used has filters of the bandpass type for selecting these wavelengths with a bandwidth of 14 nm for the excitation beam and of 10 nm for the emission one.\nThe enzyme was added last to the prepared wells. After adding the enzyme, the contents of the well were sucked up and released twice with a pipette, in order to homogenize as much as possible the mixture. […] The addition of the enzyme well by well was accomplished by observing the reading delay between the wells, so that the reaction times of each well were the same for each readout of the plate in order to allow comparison of the acquired data for different wells (in these experiments, there was a delay between 3 seconds and 20 seconds, between the readout of the neighboring wells, to be multiplied by up to 77 wells read by acquisition at a time t). […]"}, "[2]": {"experiment": "Stability controls: fluorescence of probes in buffered aqueous solution without PLA enzyme (spontaneous hydrolysis, falsely positive signal)", "type": "physicochemical", "conditions": "for Signal increase relative to noise in the absence of enzyme (stability to spontaneous hydrolysis): 100 μM, 660 minutes, buffered pH ~7.6, no PLA, FIG. 4", "procedure": "as §1, §2, §3\nA series of control measurements of background fluorescence was carried out, with wells containing some enzyme in the standard buffer without any probe. A last series of measurements was conducted by using a solution of probe I.1 prepared three weeks beforehand (“3 wks”), in order to obtain another estimation of the robustness of this probe towards spontaneous hydrolysis in practice. Each readout lasted for 3 seconds per well. […]"}, "[3]": {"experiment": "Solubility in water / aqueous media (observation)", "conditions": "solid tosylate; dissolves easily in MeOH then dilutable with water"}, "[4]": {"conditions": "actual 10 μM, plateau not reached, underestimated"}, "[5]": {"conditions": "actual 18 μM, plateau not reached, underestimated"}},
  "data": [
    {"smiles": "CC(C)C[C@H](N)C(=O)NCC(C)(C)N(C)C(=O)Oc1ccccc1-c1nc2ccccc2c(=O)[nH]1", "note": "[I.2]", "values": [
      {"measurement": "Predicted Conc. (initial probe concentration estimated from the average ratio)", "setting": "[1]; [4]", "value": 1, "unit": "µM"},
      {"measurement": "Predicted Conc. (initial probe concentration estimated from the average ratio)", "setting": "[1]; [5]", "value": 6, "unit": "µM"},
      {"measurement": "Predicted Conc. (initial probe concentration estimated from the average ratio)", "setting": "[1]; actual 32 μM", "value": 40, "unit": "µM"},
      {"measurement": "Predicted Conc. (initial probe concentration estimated from the average ratio)", "setting": "[1]; actual 59 μM", "value": 63, "unit": "µM"},
      {"measurement": "Predicted Conc. (initial probe concentration estimated from the average ratio)", "setting": "[1]; actual 100 μM", "value": 98, "unit": "µM"},
      {"measurement": "Signal/Conc. (signal plateau/concentration ratio)", "setting": "[1]; probe 32 μM, with PLA", "value": 110289, "unit": "RFU μM^−1"},
      {"measurement": "Signal/Conc. (signal plateau/concentration ratio)", "setting": "[1]; probe 59 μM, with PLA", "value": 95096, "unit": "RFU μM^−1"},
      {"measurement": "Signal/Conc. (signal plateau/concentration ratio)", "setting": "[1]; probe 100 μM, with PLA", "value": 87269, "unit": "RFU μM^−1"},
      {"measurement": "Delay for obtaining an intense increase in the signal", "setting": "[1]; with PLA", "value": "about 10 minutes"},
      {"measurement": "Signal increase relative to noise in the absence of enzyme (stability to spontaneous hydrolysis)", "setting": "[2]", "value": "NO signal increase"},
      {"measurement": "Degradation in the absence of enzyme", "setting": "[2]; probe 100 μM without enzyme, FIG. 3", "value": "does not degrade in the absence of enzyme"}
    ]},
    {"smiles": "CC(C)C[C@H](N)C(=O)NCC1CCCCN1C(=O)Oc1ccccc1-c1nc2ccccc2c(=O)[nH]1", "note": "(some centres unmarked) [I.1]", "values": [
      {"measurement": "Predicted Conc. (initial probe concentration estimated from the average ratio)", "setting": "[1]; [4]", "value": 0, "unit": "µM"},
      {"measurement": "Predicted Conc. (initial probe concentration estimated from the average ratio)", "setting": "[1]; [5]", "value": 6, "unit": "µM"},
      {"measurement": "Predicted Conc. (initial probe concentration estimated from the average ratio)", "setting": "[1]; actual 32 μM", "value": 26, "unit": "µM"},
      {"measurement": "Predicted Conc. (initial probe concentration estimated from the average ratio)", "setting": "[1]; actual 59 μM", "value": 42, "unit": "µM"},
      {"measurement": "Predicted Conc. (initial probe concentration estimated from the average ratio)", "setting": "[1]; actual 100 μM", "value": 108, "unit": "µM"},
      {"measurement": "Predicted Conc. (initial probe concentration estimated from the average ratio)", "setting": "[1]; actual 378 μM, 3 wks stored solution", "value": 419, "unit": "µM"},
      {"measurement": "Signal/Conc. (signal plateau/concentration ratio)", "setting": "[1]; probe 32 μM, with PLA", "value": 72794, "unit": "RFU μM^−1"},
      {"measurement": "Signal/Conc. (signal plateau/concentration ratio)", "setting": "[1]; probe 59 μM, with PLA", "value": 63054, "unit": "RFU μM^−1"},
      {"measurement": "Signal/Conc. (signal plateau/concentration ratio)", "setting": "[1]; probe 100 μM, with PLA", "value": 95711, "unit": "RFU μM^−1"},
      {"measurement": "Signal/Conc. (signal plateau/concentration ratio)", "setting": "[1]; probe 378 μM, 3 wks stored solution, with PLA", "value": 98684, "unit": "RFU μM^−1"},
      {"measurement": "Photo-degradation: signals once the plateau is reached, under irradiation of the fluorescence reader", "setting": "[1]; with PLA, 11 h acquisition, FIG. 6", "value": "do not decrease over time"},
      {"measurement": "Delay for obtaining an intense increase in the signal", "setting": "[1]; with PLA", "value": "about 10 minutes"},
      {"measurement": "Signal increase relative to noise in the absence of enzyme (stability to spontaneous hydrolysis)", "setting": "[2]", "value": "NO signal increase"},
      {"measurement": "Falsely positive signal due to spontaneous hydrolysis of the probe", "setting": "[2]; probe 209 μM and 80 μM without enzyme, 40 hours of incubation, FIG. 1", "value": "absence of any falsely positive signal due to spontaneous hydrolysis of the probe"},
      {"measurement": "Solubility in water", "setting": "[3]", "value": "not very soluble in water"}
    ]}
  ]
}
